In patent EP3925956B1, “1H-INDAZOLE-3-CARBOXAMIDE DERIVATIVES AND RELATED COMPOUNDS AS FACTOR D INHIBITORS FOR TREATING DISEASES CHARACTERIZED BY ABERRANT COMPLEMENT SYSTEM ACTIVITY, SUCH AS E.G. IMMUNOLOGICAL DISORDERS” (BioCryst Pharmaceuticals, Inc., priority 2016, dated 2017) one finds IC50 data, which are given here for eleven compounds.

The experiment deals with Factor D (Homo sapiens, UniProt P00746). The experiment is described as follows: Factor D esterolytic assay.

Where only a bound is given, the exact number is not on record here.

Factor D, sequence (P00746 26-253): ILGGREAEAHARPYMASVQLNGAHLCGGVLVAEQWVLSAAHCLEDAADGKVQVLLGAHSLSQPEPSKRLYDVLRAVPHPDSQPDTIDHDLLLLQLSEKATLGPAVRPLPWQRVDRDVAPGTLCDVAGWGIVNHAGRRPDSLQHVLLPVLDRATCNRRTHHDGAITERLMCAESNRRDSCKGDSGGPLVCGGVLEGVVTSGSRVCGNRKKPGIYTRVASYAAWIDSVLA

Consider `NC(=O)c1nn(CC(=O)N(CC(=O)NCc2cccc(Cl)c2F)[C@H]2C[C@@H](CO)C2)c2ccccc12` [210b, 1-(2-((2-((3-chloro-2-fluorobenzyl)amino)-2-oxoethyl)((cis)-3-(hydroxymethyl)cyclobutyl)amino)-2-oxoethyl)-1H-indazole-3-carboxamide], for which the IC50 – broadly, the concentration at which inhibition is half-maximal – is under 1000 nM.
For the compound `COC(=O)c1ccc2c(c1)c(C(C)=O)nn2CC(=O)N(CC(=O)NCc1cccc(Cl)c1F)C1CC1` [227a, methyl 3-acetyl-1-(2-((2-((3-chloro-2-fluorobenzyl)amino)-2-oxoethyl)(cyclopropyl)amino)-2-oxoethyl)-1H-indazole-5-carboxylate], the half-maximal inhibitory concentration (IC50) was under 1000 nM.
For `CC(O)c1nn(CC(=O)N(CC(=O)NCc2cccc(Cl)c2F)C2CC2)c2ccc(NC(=O)N3CCCC(F)(F)C3)cc12` (centres unmarked) [289a, N-(1-(2-((2-((3-chloro-2-fluorobenzyl)amino)-2-oxoethyl)(cyclopropyl)amino)-2-oxoethyl)-3-(1-hydroxyethyl)-1H-indazol-5-yl)-3,3-difluoropiperidine-1-carboxamide] the value was 1000 to 10000 nM; for `CC(C)(C)CC(=O)Nc1ccc2c(C(N)=O)nn(CC(=O)N(CC(=O)NCc3cccc(Cl)c3F)C3CC3)c2c1` [322b, 1-(2-((2-((3-chloro-2-fluorobenzyl)amino)-2-oxoethyl)(cyclopropyl)amino)-2-oxoethyl)-6-(3,3-dimethylbutanamido)-1H-indazole-3-carboxamide], under 1000 nM; for `NC(=O)c1nn(CC(=O)N(CC(=O)NCc2cccc(Cl)c2F)C2CC2)c2ncc(N)cc12` [326b, 5-amino-1-(2-((2-((3-chloro-2-fluorobenzyl)amino)-2-oxoethyl)(cyclopropyl)amino)-2-oxoethyl)-1H-pyrazolo[3,4-b]pyridine-3-carboxamide], 1000 to 10000 nM.
Compound `C[C@H](CO)N(CC(=O)NCc1cccc(Cl)c1F)C(=O)Cn1nc(C(N)=O)c2cc(NC(=O)OC(C)(C)C)ccc21` [345e, (R)-tert-butyl (3-carbamoyl-1-(2-((2-((3-chloro-2-fluorobenzyl)amino)-2-oxoethyl)(1-hydroxypropan-2-yl)amino)-2-oxoethyl)-1H-indazol-5-yl)carbamate] showed an IC50 of under 1000 nM.
The compound `NC(=O)c1nn(CC(=O)N(CC(=O)NCc2cccc(Cl)c2F)[C@H]2C[C@H](N)C2)c2ccc([N+](=O)[O-])cc12` [347b, 1-(2-(((trans)-3-aminocyclobutyl)(2-((3-chloro-2-fluorobenzyl)amino)-2-oxoethyl)amino)-2-oxoethyl)-5-nitro-1H-indazole-3-carboxamide] returned an IC50 of under 1000 nM.
In the case of `NC(=O)c1nn(CC(=O)N(CC(=O)Nc2cccc(Br)n2)[C@H]2C[C@H](N)C2)c2ccccc12` [349d, 1-(2-(((trans)-3-aminocyclobutyl)(2-((6-bromopyridin-2-yl)amino)-2-oxoethyl)amino)-2-oxoethyl)-1H-indazole-3-carboxamide], the IC50 is under 1000 nM.
The same measure for `NC(=O)c1nn(CC(=O)N(CC(=O)Nc2cncc(Br)n2)[C@H]2C[C@H](N)C2)c2ccccc12` [350c, 1-(2-(((trans)-3-aminocyclobutyl)(2-((6-bromopyrazin-2-yl)amino)-2-oxoethyl)amino)-2-oxoethyl)-1H-indazole-3-carboxamide]: under 1000 nM.
For `NC(=O)c1nn(CC(=O)N(CC(=O)NCc2cccc(Cl)c2F)[C@H]2C[C@H](N)C2)c2ccc(N)cc12` [351b, 5-amino-1-(2-(((trans)-3-aminocyclobutyl)(2-((3-chloro-2-fluorobenzyl)amino)-2-oxoethyl)amino)-2-oxoethyl)-1H-indazole-3-carboxamide] the value was under 1000 nM; for `CN(C)CC[C@H](N)c1cccc(Cl)c1F` [358f, (S)-1-(3-chloro-2-fluorophenyl)-N3,N3-dimethylpropane-1,3-diamine], 1000 to 10000 nM.
